Assay results reported in PubChem BioAssay AID1963854 (Molecular Pharmacology Branch, DTP, NCI, 2024).

System: 186277-243-T-J2-PDC complex spheroid viability
Test: Anticancer human tumor 186277-243-T-J2-PDC patient-derived colon adenocarcinoma cell line growth inhibition [POLQ]
Details: for IC50: curve of first compound; for viability, T/C: stronger effect = lower value
How it was run: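 Three-cell-type spheroids modelling solid tumor plus stroma served as the readout system; POL inhibitors were tested individually and in combination, concentration ranges set by clinical Cmax where known.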

[1] = second compound 0.0316 µM, first compound 0.0316 µM
[2] = second compound 0.0316 µM, first compound 0.1 µM
[3] = second compound 0.0316 µM, first compound 0.316 µM
[4] = second compound 0.0316 µM, first compound 1 µM
[5] = second compound 0.0316 µM, first compound 3.16 µM
[6] = second compound 0.0316 µM, first compound 10 µM
[7] = second compound 0.1 µM, first compound 0.0316 µM
[8] = second compound 0.1 µM, first compound 0.1 µM
[9] = second compound 0.1 µM, first compound 0.316 µM
[10] = second compound 0.1 µM, first compound 1 µM
[11] = second compound 0.1 µM, first compound 3.16 µM
[12] = second compound 0.1 µM, first compound 10 µM
[13] = second compound 0.316 µM, first compound 0.0316 µM
[14] = second compound 0.316 µM, first compound 0.1 µM
[15] = second compound 0.316 µM, first compound 0.316 µM
[16] = second compound 0.316 µM, first compound 1 µM
[17] = second compound 0.316 µM, first compound 3.16 µM
[18] = second compound 0.316 µM, first compound 10 µM
[19] = second compound 1 µM, first compound 0.0316 µM
[20] = second compound 1 µM, first compound 0.1 µM
[21] = second compound 1 µM, first compound 0.316 µM
[22] = second compound 1 µM, first compound 1 µM
[23] = second compound 1 µM, first compound 3.16 µM
[24] = second compound 1 µM, first compound 10 µM
[25] = second compound 3.16 µM, first compound 0.0316 µM
[26] = second compound 3.16 µM, first compound 0.1 µM
[27] = second compound 3.16 µM, first compound 0.316 µM
[28] = second compound 3.16 µM, first compound 1 µM
[29] = second compound 3.16 µM, first compound 3.16 µM
[30] = second compound 3.16 µM, first compound 10 µM
[31] = second compound 10 µM, first compound 0.0316 µM
[32] = second compound 10 µM, first compound 0.1 µM
[33] = second compound 10 µM, first compound 0.316 µM
[34] = second compound 10 µM, first compound 1 µM
[35] = second compound 10 µM, first compound 3.16 µM
[36] = second compound 10 µM, first compound 10 µM
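Further: spheroids exposed to compounds for seven days.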
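Wherever viability, T/C is given: 100% = DMSO vehicle control viability.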

SMILES: O=c1[nH]cc(F)c(=O)[nH]1 + Cc1cccc(N(C)C(=O)C2C(O)CCN2c2nc(C)cc(C(F)(F)F)c2C#N)c1
- IC50 (second compound 0.0316 µM): 9.4 µM
- IC50 (second compound 0.1 µM): > 10 µM
- IC50 (second compound 0.316 µM): 9.14 µM
- IC50 (second compound 1 µM): 9.77 µM
- IC50 (second compound 3.16 µM): > 10 µM
- IC50 (second compound 10 µM): 8.83 µM
- viability, T/C [1]: 103%
- viability, T/C [2]: 99.5%
- viability, T/C [3]: 95.4%
- viability, T/C [4]: 112%
- viability, T/C [5]: 75.5%
- viability, T/C [6]: 48.5%
- viability, T/C [7]: 105%
- viability, T/C [8]: 99.9%
- viability, T/C [9]: 98.9%
- viability, T/C [10]: 98.3%
- viability, T/C [11]: 73.5%
- viability, T/C [12]: 52.2%
- viability, T/C [13]: 87.2%
- viability, T/C [14]: 91.6%
- viability, T/C [15]: 94.4%
- viability, T/C [16]: 116%
- viability, T/C [17]: 76.5%
- viability, T/C [18]: 47.8%
- viability, T/C [19]: 102%
- viability, T/C [20]: 102%
- viability, T/C [21]: 104%
- viability, T/C [22]: 103%
- viability, T/C [23]: 79.9%
- viability, T/C [24]: 49.4%
- viability, T/C [25]: 112%
- viability, T/C [26]: 108%
- viability, T/C [27]: 88.5%
- viability, T/C [28]: 99.7%
- viability, T/C [29]: 81.8%
- viability, T/C [30]: 52.1%
- viability, T/C [31]: 105%
- viability, T/C [32]: 110%
- viability, T/C [33]: 100%
- viability, T/C [34]: 111%
- viability, T/C [35]: 77.6%
- viability, T/C [36]: 46.7%

SMILES: O=C(Nc1ccc(O)c(NS(=O)(=O)c2ccc(F)cc2)c1)c1ccc(-c2ccccc2)cc1 + Nc1ccc(C#CCN(C(=O)Cc2ncc(C(F)(F)F)cc2C(F)(F)F)c2ccc(F)cc2)nn1
- IC50 (second compound 0.0316 µM): > 10 µM
- IC50 (second compound 0.1 µM): > 10 µM
- IC50 (second compound 0.316 µM): > 10 µM
- IC50 (second compound 1 µM): > 10 µM
- IC50 (second compound 3.16 µM): > 10 µM
- IC50 (second compound 10 µM): > 10 µM
- viability, T/C [1]: 117%
- viability, T/C [2]: 91%
- viability, T/C [3]: 92.4%
- viability, T/C [4]: 89.4%
- viability, T/C [5]: 99.8%
- viability, T/C [6]: 110%
- viability, T/C [7]: 95.5%
- viability, T/C [8]: 88.8%
- viability, T/C [9]: 96.7%
- viability, T/C [10]: 86.5%
- viability, T/C [11]: 89.9%
- viability, T/C [12]: 98%
- viability, T/C [13]: 97.6%
- viability, T/C [14]: 96%
- viability, T/C [15]: 97.5%
- viability, T/C [16]: 96.7%
- viability, T/C [17]: 101%
- viability, T/C [18]: 107%
- viability, T/C [19]: 101%
- viability, T/C [20]: 96.3%
- viability, T/C [21]: 92.3%
- viability, T/C [22]: 81.9%
- viability, T/C [23]: 103%
- viability, T/C [24]: 99.9%
- viability, T/C [25]: 96.3%
- viability, T/C [26]: 80.8%
- viability, T/C [27]: 104%
- viability, T/C [28]: 96.7%
- viability, T/C [29]: 103%
- viability, T/C [30]: 95.9%
- viability, T/C [31]: 103%
- viability, T/C [32]: 87.5%
- viability, T/C [33]: 91.2%
- viability, T/C [34]: 104%
- viability, T/C [35]: 97.2%
- viability, T/C [36]: 99.2%
